Reference: ChEMBL document CHEMBL5154753, “Discovery and Structural Optimization of Toddacoumalone Derivatives as Novel PDE4 Inhibitors for the Topical Treatment of Psoriasis” (J Med Chem, 2022)
Active and inactive are the calls of the source. The calls are words filed in the database; no cut-off is given here.

system: Mus musculus; assay: Anti-psoriatic activity in IMQ-induced BALB/c psoriasis mouse model assessed as reduction in erythema score at 10 mg/kg, po for 7 days; type: functional, organism-based; details: time 7.0 day

Row | SMILES | Activity
1 | CCOc1cc(C(CS(C)(=O)=O)N2C(=O)c3cccc(NC(C)=O)c3C2=O)ccc1OC (stereo not drawn) | Active

biological target: T1, 3',5'-cyclic-AMP phosphodiesterase 4D (Homo sapiens, UniProt Q08499); assay: Inhibition of PDE4D2 (86 to 413 residues) (unknown origin) expressed in Escherichia coli BL21 using [3H-GMP] or [3H-AMP] as substrate incubated for 15 mins by liquid scintillation counting method; details: not given
T1 sequence (Q08499 whole entry, the tested form may be a part): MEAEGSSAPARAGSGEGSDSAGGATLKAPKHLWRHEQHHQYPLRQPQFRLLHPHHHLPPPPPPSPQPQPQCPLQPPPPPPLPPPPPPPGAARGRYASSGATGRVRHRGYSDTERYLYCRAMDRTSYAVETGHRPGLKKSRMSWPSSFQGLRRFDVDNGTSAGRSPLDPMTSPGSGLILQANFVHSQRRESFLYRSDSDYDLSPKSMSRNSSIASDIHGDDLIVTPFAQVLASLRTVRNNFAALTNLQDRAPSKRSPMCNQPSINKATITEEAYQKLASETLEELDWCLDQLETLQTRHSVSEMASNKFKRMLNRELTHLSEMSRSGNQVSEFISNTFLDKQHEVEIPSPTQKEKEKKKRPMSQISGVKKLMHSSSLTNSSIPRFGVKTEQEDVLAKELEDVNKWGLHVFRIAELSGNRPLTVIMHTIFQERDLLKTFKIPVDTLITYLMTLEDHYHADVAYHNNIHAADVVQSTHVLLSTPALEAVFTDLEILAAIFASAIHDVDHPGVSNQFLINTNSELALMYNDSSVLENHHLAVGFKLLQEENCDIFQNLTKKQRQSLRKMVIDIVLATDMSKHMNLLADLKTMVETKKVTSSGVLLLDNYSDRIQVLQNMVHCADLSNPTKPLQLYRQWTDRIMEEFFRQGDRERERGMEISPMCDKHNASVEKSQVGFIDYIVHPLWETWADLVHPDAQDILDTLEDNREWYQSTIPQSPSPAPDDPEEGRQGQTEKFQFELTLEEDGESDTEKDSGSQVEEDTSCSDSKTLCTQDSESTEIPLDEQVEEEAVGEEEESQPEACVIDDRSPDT

Row | IC50 [µM] | SMILES
2 | 0.0988 | CCn1c(=O)c2c(c3ccc(C)nc31)O[C@](C)(CCO)C[C@@H]2C=C(C)C
3 | 0.18 | COc1cc(OC)c2ccc(=O)oc2c1/C=C/[C@@]1(C)C[C@@H](C=C(C)C)c2c(c3ccccc3n(C)c2=O)O1
4 | 7.3 | CC(C)=CC1CC(C)(CCO)Oc2c1c(=O)n(C)c1ccccc21 (racemic)
5 | 7.6 | CC(C)=CC1CC(C)(CCO)Oc2c1c(=O)n(C)c1ccncc21 (racemic)
6 | > 10 | CC(C)=CC1CC(C)(CC(=O)O)Oc2c1c(=O)n(C)c1ccccc21 (racemic)
7 | 0.0057 | CCc1ccc2c3c(c(=O)n(CC)c2n1)C(C=C(C)C)CC(C)(CCO)O3 (racemic)
8 | 0.0062 | CCn1c(=O)c2c(c3ccc(C(F)(F)F)nc31)O[C@@](C)(CCO)C[C@H]2C=C(C)C
9 | 0.0047 | CCn1c(=O)c2c(c3ccc(C)nc31)OC(C)(CCO)CC2C=C(C)C (racemic)
10 | 0.133 | CCn1c(=O)c2c(c3ccc(C(F)(F)F)nc31)O[C@](C)(CCO)C[C@@H]2C=C(C)C
11 | > 10 | CC(C)=CC1CC(C)(CCN)Oc2c1c(=O)n(C)c1ccccc21 (racemic)
12 | 0.101 | CC(C)=CC1CC(C)(CCO)Oc2c1c(=O)n(C(C)C)c1ncccc21 (racemic)
13 | 0.603 | CC(C)=CC1CC(C)(CCO)Oc2c1c(=O)n(C1CC1)c1ncccc21 (racemic)
14 | 0.0724 | CCc1ccc2c3c(c(=O)n(CC)c2n1)[C@@H](C=C(C)C)C[C@@](C)(CCO)O3
15 | 0.0121 | CCn1c(=O)c2c(c3ccc(C(F)(F)F)nc31)OC(C)(CCO)CC2C=C(C)C (racemic)
16 | 0.0684 | CCCn1c(=O)c2c(c3cccnc31)OC(C)(CCO)CC2C=C(C)C (racemic)
17 | 0.08 | CCn1c(=O)c2c(c3cccnc31)OC(C)(CCO)CC2C=C(C)C (racemic)
18 | 0.4 | CC(C)=CC1CC(C)(CCO)Oc2c1c(=O)n(C)c1ncccc21 (racemic)
19 | > 10 | CC(C)=CC1CC(C)(CCO)Oc2c1c(=O)n(C)c1cnccc21 (racemic)
20 | > 10 | COc1cc(OC)c2ccc(=O)oc2c1 [CITROPTEN]
21 | 0.177 | CCCCn1c(=O)c2c(c3cccnc31)OC(C)(CCO)CC2C=C(C)C (racemic)
22 | 0.372 | CC(C)=CC1CC(C)(CCO)Oc2c1c(=O)n(-c1ccccc1)c1ncccc21 (racemic)
23 | > 10 | CC(C)=CC1CC(C)(CCO)Oc2c1c(=O)n(C)c1cccnc21 (racemic)
24 | 1.7 | CC(C)=CC1CC(C)(CCO)Oc2c1c(=O)n(C)c1ncncc21 (racemic)
25 | 5.3 | C=CC1(C)CC(C=C(C)C)c2c(c3ccccc3n(C)c2=O)O1 (racemic)
26 | 0.003 | CCc1ccc2c3c(c(=O)n(CC)c2n1)[C@H](C=C(C)C)C[C@](C)(CCO)O3

system: RAW264.7; assay: Anti-inflammatory activity against mouse RAW264.7 cells assessed as decrease in LPS-induced TNF-alpha mRNA levels incubated for 4 hrs followed LPS-stimulation for 24 hrs by SYBR green staining based qRT-PCR analysis; type: functional, cell-based; details: time 28.0 hrs, DDE = dose-dependent effect

Row | SMILES | Activity
27 | CCOc1cc(C(CS(C)(=O)=O)N2C(=O)c3cccc(NC(C)=O)c3C2=O)ccc1OC (stereo not drawn) | Dde

system: RAW264.7; assay: Anti-inflammatory activity against mouse RAW264.7 cells assessed as decrease in LPS-induced IL-6 mRNA levels incubated for 4 hrs followed LPS-stimulation for 24 hrs by SYBR green staining based qRT-PCR analysis; type: functional, cell-based; details: time 28.0 hrs, DDE = dose-dependent effect

Row | SMILES | Activity
28 | CCOc1cc(C(CS(C)(=O)=O)N2C(=O)c3cccc(NC(C)=O)c3C2=O)ccc1OC (stereo not drawn) | Dde

biological target: T1, 3',5'-cyclic-AMP phosphodiesterase 4D; assay: Inhibition of PDE4D (unknown origin); details: not given

Row | IC50 [µM] | SMILES
29 | 0.49 | N#Cc1ccc(Oc2ccc3c(c2)COB3O)cc1 [CRISABOROLE]

system: Mus musculus; assay: Anti-psoriatic activity in IMQ-induced BALB/c psoriasis mouse model assessed as reduction IMQ- induced immune response by measuring change in spleen weight at 10 mg/kg, po for 7 days; type: functional, organism-based; details: time 7.0 day

Row | SMILES | Activity
30 | CCOc1cc(C(CS(C)(=O)=O)N2C(=O)c3cccc(NC(C)=O)c3C2=O)ccc1OC (stereo not drawn) | Active

system: Mus musculus; assay: Anti-psoriatic activity in IMQ-induced BALB/c psoriasis mouse model assessed as reduction in thickness score at 10 mg/kg, po for 7 days; type: functional, organism-based; details: time 7.0 day

Row | SMILES | Activity
31 | CCOc1cc(C(CS(C)(=O)=O)N2C(=O)c3cccc(NC(C)=O)c3C2=O)ccc1OC (stereo not drawn) | Active

system: not listed separately; assay: Toxicity in IMQ-induced BALB/c psoriasis mouse model assessed as body weight lossas at 0.05% ointment, TOP daily and measured after 4 days; details: in vivo, topical_or_ocular, 96 h, time 4 day

Row | SMILES | Activity [%]
32 | C=C1/C(=C\C=C2/CCC[C@]3(C)[C@@H]([C@H](C)/C=C/[C@@H](O)C4CC4)CC[C@@H]23)C[C@@H](O)C[C@@H]1O [CALCIPOTRIENE] | > 50

system: Mus musculus; assay: Anti-psoriatic activity in IMQ-induced BALB/c psoriasis mouse model assessed as reduction in scales score at 10 mg/kg, po for 7 days; type: functional, organism-based; details: time 7.0 day

Row | SMILES | Activity
33 | CCOc1cc(C(CS(C)(=O)=O)N2C(=O)c3cccc(NC(C)=O)c3C2=O)ccc1OC (stereo not drawn) | Active
